In patent EP2732821A1, “Amphoteric polyamidoamines in the treatment of malaria” (Universita' Degli Studi Di Milano, priority 2012, dated 2014):
Where two headings read alike, the source gives them in different places.

Assays:
[1] = test system: P. falciparum 3D7 cultures; experiment: microbe, parasite or virus in culture; details: Plasmodium falciparum, 3D7, 48 h
Protocol: Parasitemia of P. falciparum 3D7 cultures was adjusted to 1.5% with more than 90% of parasites at ring stage after sorbitol synchronization. 98 µL of this Plasmodium culture was plated in 96-well plates and incubated in the presence of phosphate-buffered saline (PBS) solutions of the free drugs or of polymer/drug conjugates (ISA 23-PQ obtained in Example3; AGMA1-PQ obtained in Example 4,; ISA 23-CQ obtained in Example 3; AGMA1-CQ obtained in Example 4) for 48 h at 37°C under a gas mixture of 92% N2, 5% CO2, and 3% O2. Parasitemia was determined by microscopic counting of blood smears, or by FACS. Table 2. Effect of free primaquine, ISA23-PQ and AGMA1-PQ on the growth of P. falciparum. The polymers were added to P. falciparum cultures at the ring stage, and incubated for 48 h before determining parasitemia.

[2] = test system: P. yoelii XL-infected mice; details: for % parasitemia: day 4
Protocol: Briefly, mice were inoculated 2 × 10^6 red blood cells from P. yoelii XL-infected mice by intraperitoneal (ip) injection. […] Tested compounds were prepared at appropriate doses in PBS. The control groups received PBS (n=3). The parasitemia was monitored daily by microscopic examination of Wright's-stained thin-blood smears. Activity was calculated by microscopic counting of blood smears from day 4.

[3] = test system: P. yoelii-infected mice; details: oral, 100 mg kg^-1; cited from earlier work
[4] = test system: P. berghei-infected mice; details: single intravenous dose of 1 mg kg^-1, free drug; cited from earlier work

SMILES: CCN(CC)CCCC(C)Nc1ccnc2cc(Cl)ccc12 (centres unmarked) [CQ soluble, chloroquine]
- inhibition at 0.0026 µg/mL [1]: 8.9%
- inhibition at 0.00515 µg/mL [1]: 22.6%
- inhibition at 0.0103 µg/mL [1]: 72.9%
- inhibition at 0.0206 µg/mL [1]: 82.1%
- inhibition at 0.0414 µg/mL [1]: 85.9%
- inhibition at 0.0824 µg/mL [1]: 86.4%
- % parasitemia ([2]; chloroquine 1 mg/kg per day ip for 4 days): 37.7%
- % parasitemia ([2]; chloroquine 2.5 mg/kg): 20.1%
- elimination of parasitemia and cure of the animals ([2]; intraperitoneal 4 × 1 mg kg^-1 doses of CQ, free CQ at the same or even a larger amount): unable to eliminate parasitemia or cure the animals

SMILES: COc1cc(NC(C)CCCN)c2ncccc2c1 (centres unmarked) [PQ soluble, primaquine]
- inhibition at 0.44 µg/mL [1]: 6.9%
- inhibition at 0.88 µg/mL [1]: 40.9%
- inhibition at 1.76 µg/mL [1]: 53.9%
- inhibition at 3.52 µg/mL [1]: 80.3%
- inhibition at 7.04 µg/mL [1]: 86.6%
- inhibition at 14.1 µg/mL [1]: 88.2%

SMILES: COc1cc(/C=C/C(=O)CC(=O)/C=C/c2ccc(O)c(OC)c2)ccc1O [curcumin]
- animals cured [3]: one third

SMILES: CCCCN(CCCC)CCC(O)c1cc2c(Cl)cc(Cl)cc2c2cc(C(F)(F)F)ccc12 (centres unmarked) [halofantrine]
- arrest of infection and survival [4]: unable to arrest the infection or to prolong the survival of the animals
